Experimental data taken from publication PMC9479156 (Frontiers in Pharmacology, 2022).
Read-outs that look alike come from different tables or passages of the source. Marks after values point to notes of the source that are not given here.

Experiments:
[1] = tested on: asexual blood stage P. falciparum NF54 (drug sensitive); test: SYBR Green I proliferation assay, asexual blood stage Pf NF54; format: cell-based; conditions: Plasmodium falciparum, read-out: IC50 NF54
Procedure: (§1) In vitro cultivation of asexual and gametocyte P. falciparum parasites: P. falciparum asexual blood stage parasites were cultivated in human erythrocytes in RPMI-1640 media supplemented with AlbuMax II under sterile conditions and in a hypoxic environment (90% N2, 5% CO2, and 5% O2) at 37°C as described previously ([Coertzen et al., 2018]; [Wong et al., 2019]). Gametocytes were produced from asexual blood stage parasites in a stage-specific manner through induction of cellular stress as described previously ([Reader et al., 2015]; [Coertzen et al., 2018]; [Wong et al., 2019]; [Reader et al., 2022]).
DHA, artesunate, artemether, chloroquine (CQ), and methylene blue (MB) were used as reference drugs. All assay conditions are as previously described ([Coertzen et al., 2018]; [Wong et al., 2019]). […] Dose-responses were determined using a 2-fold serial drug dilution on in vitro 95% ring-stage intraerythrocytic Pf parasites (1% parasitemia, 1% hematocrit) at 37°C under 90% N2, 5% CO2, and 5% O2 atmospheric conditions, detecting SYBR green I fluorescence as a marker for parasite proliferation following a 96 h drug treatment ([Smilkstein et al., 2004]; [Verlinden et al., 2011]). Activity against the Pf drug-sensitive NF54 strain and the multi drug-resistant K1 (resistant to CQ, quinine, pyrimethamine, and cycloguanil), and W2 (resistant to CQ, quinine, pyrimethamine, and cycloguanil) strains was evaluated. […] Data analysis was performed using GraphPad Prism (version 6) software, intra-assay variability was monitored with Z-factors, and acceptable inter-assay reproducibility was determined from the percent coefficient of variation (CV) ([Reader et al., 2015]). […]
Activity was determined using the SYBR Green I based fluorescence assay on asexual blood stages of the NF54 (drug sensitive), K1 and W2 (drug resistant) strains of P. falciparum. […] Also included in Table 1 for direct comparison of activities against celastrol are data for the internal reference standards MB and artemisone recorded at the same time as for celastrol. […]

[2] = tested on: asexual blood stage P. falciparum K1 (multidrug resistant); test: SYBR Green I proliferation assay, asexual blood stage Pf K1; format: cell-based, Plasmodium falciparum
Procedure: as §1
(§2) DHA, artesunate, artemether, chloroquine (CQ), and methylene blue (MB) were used as reference drugs. […] Dose-responses were determined using a 2-fold serial drug dilution on in vitro 95% ring-stage intraerythrocytic Pf parasites (1% parasitemia, 1% hematocrit) at 37°C under 90% N2, 5% CO2, and 5% O2 atmospheric conditions, detecting SYBR green I fluorescence as a marker for parasite proliferation following a 96 h drug treatment ([Smilkstein et al., 2004]; [Verlinden et al., 2011]). Activity against the Pf drug-sensitive NF54 strain and the multi drug-resistant K1 (resistant to CQ, quinine, pyrimethamine, and cycloguanil), and W2 (resistant to CQ, quinine, pyrimethamine, and cycloguanil) strains was evaluated. […]

[3] = tested on: asexual blood stage P. falciparum W2 (multidrug resistant); test: SYBR Green I proliferation assay, asexual blood stage Pf W2; format: cell-based, Plasmodium falciparum
Procedure: as §1, §2

[4] = tested on: asexual blood stage Pf NF54; test: Fixed-ratio isobole drug combination assay (SYBR Green I); format: cell-based, Plasmodium falciparum
Procedure: The in vitro interactions of celastrol with artemisone and MB was determined using a fixed-ratio isobole analysis on Pf NF54 asexual parasites (SYBR Green I-based fluorescence). […] The fractional inhibitory concentration (FIC) for each drug in the combination was calculated as follows:
FIC = IC50 of drug A in combination with drug B/IC50 of drug A
The paired FIC values for the drugs in each combination were linearly plotted to provide the isobologram. The ΣFIC of FIC of drug A in combination with FIC of drug B was determined by calculating the mean FIC value, to obtain the representative FIC value for the drug combination. Data obtained were analysed in Excel, and sigmoidal dose-response curves and isobolograms were plotted using GraphPad 6.0. Experiments were performed in triplicate, and repeated 3 times.
As previously recorded for each of artemiside and artemisone in combination with MB ([Coertzen et al., 2018]), drug-drug interactions were monitored through evaluation of fractional inhibitory concentration (FIC) as determined by isobolograms. A mean ΣFIC<1.0 represents a synergistic interaction, >1.3 an antagonistic interaction and ΣFIC = 1 an indifferent or additive interaction. Isobologram analysis of the combinations of each of artemisone and MB in combination with celastrol was performed against the asexual stages of Pf NF54 using the SYBR Green I based assay. In Table 3 are shown the calculated FIC values for the independent combinations at each ratio as well as the ∑FIC values for each combination. In Figure 5 are presented the independent isoboles for each drug combination.

[5] = tested on: drug-sensitive and resistant asexual blood stage Pf; test: Asexual blood stage activity over all strains (abstract); format: cell-based; conditions: Plasmodium falciparum, read-out: IC50 asexual blood stage Pf
Procedure: DHA, artesunate, artemether, chloroquine (CQ), and methylene blue (MB) were used as reference drugs. All assay conditions are as previously described ([Coertzen et al., 2018]; [Wong et al., 2019]). Compound working solutions were prepared from a 10 mM stock solution in 100% (v/v) dimethyl sulfoxide (DMSO; Sigma-Aldrich) in AlbuMAX II supplemented RPMI 1640 medium with a final DMSO concentration of 0.1% (v/v), shown to be nontoxic […] to intraerythrocytic asexual blood stage parasites ([Coertzen et al., 2018]). Dose-responses were determined using a 2-fold serial drug dilution on in vitro 95% ring-stage intraerythrocytic Pf parasites (1% parasitemia, 1% hematocrit) at 37°C under 90% N2, 5% CO2, and 5% O2 atmospheric conditions, detecting SYBR green I fluorescence as a marker for parasite proliferation following a 96 h drug treatment ([Smilkstein et al., 2004]; [Verlinden et al., 2011]). Activity against the Pf drug-sensitive NF54 strain and the multi drug-resistant K1 (resistant to CQ, quinine, pyrimethamine, and cycloguanil), and W2 (resistant to CQ, quinine, pyrimethamine, and cycloguanil) strains was evaluated. […] Data analysis was performed using GraphPad Prism (version 6) software, intra-assay variability was monitored with Z-factors, and acceptable inter-assay reproducibility was determined from the percent coefficient of variation (CV) ([Reader et al., 2015]). […]

[6] = tested on: multidrug resistant Pf K1 strain; conditions: tritiated hypoxanthine assay; ref Figueiredo et al., 1998; Li et al., 2019; cited from earlier work
[7] = tested on: asexual blood stage P. falciparum K1 (multidrug resistant); conditions: ref Coertzen et al., 2018, Wong et al., 2019, cited from earlier work
[8] = tested on: asexual blood stage P. falciparum W2 (multidrug resistant); design: method as in Coertzen et al., 2018; Wong et al., 2019; conditions: ref Coertzen et al., 2018, Wong et al., 2019, cited from earlier work
A375 melanoma cells = tested on: A375 melanoma cells; design: method as in Wong et al., 2020; conditions: ref Wong et al., 2020; cited from earlier work
tumour cell lines = tested on: tumour cell lines; design: method as in earlier work; conditions: range over cell lines; ref Gravett et al., 2011; Hooft van Huijsduijnen et al., 2013; Dwivedi et al., 2015; Wu et al., 2018; Wong et al., 2020; read-out: IC50 against tumour cell lines; cited from earlier work
[9] = artemisone:celastrol drug ratio 20:80, Pf NF54
[10] = artemisone:celastrol drug ratio 40:60, Pf NF54
[11] = artemisone:celastrol drug ratio 60:40, Pf NF54
[12] = artemisone:celastrol drug ratio 80:20, Pf NF54
[13] = asexual blood stage, SYBR Green I, mean ± SEM

Q: With `CC1=C(O)C(=O)C=C2C1=CC=C1[C@@]2(C)CC[C@@]2(C)[C@@H]3C[C@](C)(C(=O)O)CC[C@]3(C)CC[C@]12C` [Celastrol, celastrol] as the compound, how does the IC50 ([1]; NF54, 96 h) read?
A: The IC50 was 820 ± 190 nM.

Q: What about the IC50 ([2]; Plasmodium falciparum, K1, 96 h, read-out: IC50 K1) of the same compound?
A: Its IC50 is 700 ± 100 nM.

Q: What about the “RI (resistance index) = IC50 K1/IC50 NF54” value ([2]; this study) of the same compound?
A: Its value is 0.85.

Q: And the IC50 ([3]; Plasmodium falciparum, W2, 96 h, read-out: IC50 W2)?
A: The IC50 was 500 ± 100 nM.

Q: And the “RI = IC50 W2/IC50 NF54” value ([3]; this study)?
A: The value was 0.61.

Q: What about the FIC ([4]; MB:celastrol drug ratio 40:60, Pf NF54) of the same compound?
A: The FIC was 1.02.

Q: And the FIC ([4]; MB:celastrol drug ratio 60:40, Pf NF54)?
A: Its FIC is 0.72.

Q: And the FIC ([4]; MB:celastrol drug ratio 80:20, Pf NF54)?
A: Its FIC is 0.41.

Q: And the FIC [4, 9]?
A: Its FIC is 0.93.

Q: And the FIC [4, 10]?
A: Its FIC is 0.76.

Q: What about the FIC [4, 11] of the same compound?
A: The FIC was 0.60.

Q: And the FIC [4, 12]?
A: The FIC was 0.50.

Q: And the IC50 [5]?
A: Its IC50 is 500 to 820 nM.

Q: And the IC50 [6]?
A: The IC50 was 401 nM.

Q: Which results are given for `C[C@H]1[C@H](N2CCS(=O)(=O)CC2)O[C@@H]2O[C@@]3(C)CC[C@H]4[C@H](C)CC[C@@H]1[C@@]24OO3` [Artemisone, artemisone]?
A: IC50 ([1]; NF54, asexual blood stage, SYBR Green I, 96 h, mean ± SEM, this study): 2.32 ± 0.76 nM; FIC [4, 9]: 0.12; FIC [4, 10]: 0.24; FIC [4, 11]: 0.39; FIC [4, 12]: 0.69; IC50 [7, 13]: 1.01 ± 0.19 nM; RI (resistance index) = IC50 K1/IC50 NF54 [7]: 0.85 ^f; IC50 [8, 13]: 1.6 ± 0.4 nM; RI = IC50 W2/IC50 NF54 [8]: 1.36^f; IC50 (A375 melanoma cells): 95700 nM; IC50 (tumour cell lines): 260 to 95700 nM
